# Results published in doi:10.1101/2021.03.09.434688v1 (biorxiv, 2021).
# Target: T1, PsnB (Plesiocystis pacifica, UniProt A6G4D7)
# T1 sequence (A6G4D7 1-314): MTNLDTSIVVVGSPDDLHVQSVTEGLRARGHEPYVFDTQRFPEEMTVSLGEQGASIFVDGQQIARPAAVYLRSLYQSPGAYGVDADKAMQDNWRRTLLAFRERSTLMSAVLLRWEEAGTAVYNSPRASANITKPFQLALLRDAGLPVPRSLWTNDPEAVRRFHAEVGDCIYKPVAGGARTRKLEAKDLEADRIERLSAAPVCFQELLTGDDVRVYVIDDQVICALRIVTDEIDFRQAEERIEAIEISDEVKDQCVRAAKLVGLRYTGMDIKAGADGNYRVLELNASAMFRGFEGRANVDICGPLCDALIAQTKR
# T1 sequence (A6GH40 14-38 partner): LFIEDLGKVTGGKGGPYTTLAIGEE
# Experiment: X-ray crystal structure of the complex
# Assay type: binding
# Conditions: complex with minimal precursor PsnA2_14-38 and Mg; nucleotide 5 mM; ATP site
row,X-ray crystal structure of the complex,Compound
1,For PsnB-MP-ADP (7DRM),Nc1ncnc2c1ncn2[C@@H]1O[C@H](COP(=O)(O)OP(=O)(O)O)[C@@H](O)[C@H]1O [ADP]
2,PsnB-MP-AMPPNP (7DRN),Nc1ncnc2c1ncn2[C@@H]1O[C@H](COP(=O)(O)OP(=O)(O)NP(=O)(O)O)[C@@H](O)[C@H]1O [AMPPNP]
